From ChEMBL document CHEMBL4507300 (2021)

Columns and labels:
[1] = target: 5-hydroxytryptamine receptor 2C (Homo sapiens) (UniProt P28335); details: Compound concentration 10.0 uM
[2] = target: Serine/threonine-protein kinase 33 (Homo sapiens) (UniProt Q9BYT3); details: Compound concentration 1000.0 nM
[3] = target: Dual specificity mitogen-activated protein kinase kinase 5 (Homo sapiens) (UniProt Q13163); details: Compound concentration 1000.0 nM
[4] = target: Serine/threonine-protein kinase PLK4 (Homo sapiens) (UniProt O00444); details: Compound concentration 1000.0 nM
[5] = target: Serine/threonine-protein kinase PknB (Mycobacterium tuberculosis) (UniProt P9WI81); details: Compound concentration 1000.0 nM
[6] = target: Tyrosine-protein kinase Fes/Fps (Homo sapiens) (UniProt P07332); details: Compound concentration 1000.0 nM
[7] = test system: Epidermal growth factor receptor (Homo sapiens), P00533 [L861Q]; details: Compound concentration 1000.0 nM
[8] = target: Mitogen-activated protein kinase kinase kinase 19 (Homo sapiens) (UniProt Q56UN5); details: Compound concentration 1000.0 nM
[9] = target: Ephrin type-B receptor 4 (Homo sapiens) (UniProt P54760); details: Compound concentration 1000.0 nM
[10] = target: Kappa-type opioid receptor (Homo sapiens) (UniProt P41145); details: Compound concentration 10.0 uM
[11] = target: Activin receptor type-2A (Homo sapiens) (UniProt P27037); details: Compound concentration 1000.0 nM
[12] = target: Serine/threonine-protein kinase 26 (Homo sapiens) (UniProt Q9P289); details: Compound concentration 1000.0 nM
[13] = target: Serine/threonine-protein kinase DCLK3 (Homo sapiens) (UniProt Q9C098); details: Compound concentration 1000.0 nM
[14] = target: Ephrin type-B receptor 3 (Homo sapiens) (UniProt P54753); details: Compound concentration 1000.0 nM
[15] = test system: Leucine-rich repeat serine/threonine-protein kinase 2 (Homo sapiens), Q5S007 [G2019S]; details: Compound concentration 1000.0 nM
[16] = target: Cyclin-dependent kinase 11A (Homo sapiens) (UniProt Q9UQ88); details: Compound concentration 1000.0 nM
[17] = target: Serine/threonine-protein kinase PLK2 (Homo sapiens) (UniProt Q9NYY3); details: Compound concentration 1000.0 nM
[18] = target: Beta-adrenergic receptor kinase 1 (Homo sapiens) (UniProt P25098); details: Compound concentration 1000.0 nM
[19] = target: Serine/threonine-protein kinase D1 (Homo sapiens) (UniProt Q15139); details: Compound concentration 1000.0 nM
[20] = target: Sodium-dependent noradrenaline transporter (Homo sapiens) (UniProt P23975); details: Compound concentration 10.0 uM
[21] = target: Interferon-induced, double-stranded RNA-activated protein kinase (Homo sapiens) (UniProt P19525); details: Compound concentration 1000.0 nM
[22] = target: 5-hydroxytryptamine receptor 3A (Homo sapiens) (UniProt P46098); details: Compound concentration 10.0 uM
[23] = target: Serine/threonine-protein kinase MARK1 (Homo sapiens) (UniProt Q9P0L2); details: Compound concentration 1000.0 nM
[24] = target: Vascular endothelial growth factor receptor 3 (Homo sapiens) (UniProt P35916); details: Compound concentration 1000.0 nM
[25] = target: Cyclin-dependent kinase 13 (Homo sapiens) (UniProt Q14004); details: Compound concentration 1000.0 nM
[26] = target: Serine/threonine-protein kinase SIK2 (Homo sapiens) (UniProt Q9H0K1); details: Compound concentration 1000.0 nM
[27] = target: Serine/threonine-protein kinase pim-2 (Homo sapiens) (UniProt Q9P1W9); details: Compound concentration 1000.0 nM
[28] = target: Serine/threonine-protein kinase Nek5 (Homo sapiens) (UniProt Q6P3R8); details: Compound concentration 1000.0 nM
[29] = target: Tyrosine-protein kinase receptor Tie-1 (Homo sapiens) (UniProt P35590); details: Compound concentration 1000.0 nM
[30] = target: Macrophage colony-stimulating factor 1 receptor (Homo sapiens) (UniProt P07333); details: Compound concentration 1000.0 nM
[31] = test system: Phosphatidylinositol 4,5-bisphosphate 3-kinase catalytic subunit alpha isoform (Homo sapiens), P42336 [E545A]; details: Compound concentration 1000.0 nM
[32] = target: Ribosomal protein S6 kinase alpha-5 (Homo sapiens) (UniProt O75582); details: Compound concentration 1000.0 nM
[33] = test system: Epidermal growth factor receptor (Homo sapiens), P00533 [UNDEFINED MUTATION]; details: Compound concentration 1000.0 nM
[34] = target: Serine/threonine-protein kinase N1 (Homo sapiens) (UniProt Q16512); details: Compound concentration 1000.0 nM
[35] = test system: Proto-oncogene tyrosine-protein kinase receptor Ret (Homo sapiens), P07949 [M918T]; details: Compound concentration 1000.0 nM
[36] = target: Serine/threonine-protein kinase Nek3 (Homo sapiens) (UniProt P51956); details: Compound concentration 1000.0 nM
[37] = target: Phosphatidylinositol 5-phosphate 4-kinase type-2 beta (Homo sapiens) (UniProt P78356); details: Compound concentration 1000.0 nM
[38] = test system: ALK tyrosine kinase receptor (Homo sapiens), Q9UM73 [L1196M]; details: Compound concentration 1000.0 nM
[39] = target: Serine/threonine-protein kinase 32A (Homo sapiens) (UniProt Q8WU08); details: Compound concentration 1000.0 nM
[40] = target: Insulin receptor-related protein (Homo sapiens) (UniProt P14616); details: Compound concentration 1000.0 nM
[41] = target: Rho-associated protein kinase 1 (Homo sapiens) (UniProt Q13464); details: Compound concentration 1000.0 nM
[42] = target: Aurora kinase B (Homo sapiens) (UniProt Q96GD4); details: Compound concentration 1000.0 nM
[43] = target: Serine/threonine-protein kinase ULK3 (Homo sapiens) (UniProt Q6PHR2); details: Compound concentration 1000.0 nM
[44] = target: Rho-associated protein kinase 2 (Homo sapiens) (UniProt O75116); details: Compound concentration 1000.0 nM
[45] = target: Protein kinase C iota type (Homo sapiens) (UniProt P41743); details: Compound concentration 1000.0 nM

Sequence of Serine/threonine-protein kinase MARK1 (Homo sapiens) (Q9P0L2 whole entry, looked up): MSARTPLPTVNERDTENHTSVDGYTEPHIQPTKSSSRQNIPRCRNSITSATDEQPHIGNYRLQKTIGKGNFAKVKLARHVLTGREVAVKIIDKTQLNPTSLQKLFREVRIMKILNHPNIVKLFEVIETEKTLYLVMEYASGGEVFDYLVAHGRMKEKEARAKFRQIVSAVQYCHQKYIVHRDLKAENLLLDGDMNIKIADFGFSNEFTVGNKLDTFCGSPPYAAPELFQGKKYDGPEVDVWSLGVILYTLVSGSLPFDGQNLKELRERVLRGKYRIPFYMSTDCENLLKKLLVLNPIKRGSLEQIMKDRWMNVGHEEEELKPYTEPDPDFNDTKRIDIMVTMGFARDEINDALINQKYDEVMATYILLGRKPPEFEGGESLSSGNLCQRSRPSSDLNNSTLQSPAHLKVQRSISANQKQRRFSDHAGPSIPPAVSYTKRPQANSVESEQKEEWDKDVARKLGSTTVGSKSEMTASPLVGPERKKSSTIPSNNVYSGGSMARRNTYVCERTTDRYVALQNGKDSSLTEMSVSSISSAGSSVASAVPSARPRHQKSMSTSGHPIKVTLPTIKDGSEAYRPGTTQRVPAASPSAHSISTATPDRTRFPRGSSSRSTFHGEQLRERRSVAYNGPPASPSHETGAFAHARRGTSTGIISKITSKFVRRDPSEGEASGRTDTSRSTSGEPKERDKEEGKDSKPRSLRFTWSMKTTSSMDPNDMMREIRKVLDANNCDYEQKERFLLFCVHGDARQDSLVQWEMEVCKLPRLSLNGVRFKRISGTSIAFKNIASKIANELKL
Sequence of Activin receptor type-2A (Homo sapiens) (P27037 whole entry): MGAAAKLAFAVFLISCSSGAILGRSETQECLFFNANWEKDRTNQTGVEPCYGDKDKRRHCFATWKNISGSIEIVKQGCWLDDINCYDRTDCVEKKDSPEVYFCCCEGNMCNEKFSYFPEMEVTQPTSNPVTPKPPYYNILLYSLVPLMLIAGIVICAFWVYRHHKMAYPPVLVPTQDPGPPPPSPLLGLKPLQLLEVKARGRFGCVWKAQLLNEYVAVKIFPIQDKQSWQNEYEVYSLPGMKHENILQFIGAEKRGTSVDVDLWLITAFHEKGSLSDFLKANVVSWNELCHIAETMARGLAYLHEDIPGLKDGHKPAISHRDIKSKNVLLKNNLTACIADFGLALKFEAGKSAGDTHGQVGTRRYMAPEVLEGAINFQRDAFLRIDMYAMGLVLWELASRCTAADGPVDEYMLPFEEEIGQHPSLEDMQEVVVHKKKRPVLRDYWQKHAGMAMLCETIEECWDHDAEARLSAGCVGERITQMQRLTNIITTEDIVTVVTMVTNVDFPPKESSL
Sequence of Macrophage colony-stimulating factor 1 receptor (Homo sapiens) (P07333 whole entry, canonical isoform): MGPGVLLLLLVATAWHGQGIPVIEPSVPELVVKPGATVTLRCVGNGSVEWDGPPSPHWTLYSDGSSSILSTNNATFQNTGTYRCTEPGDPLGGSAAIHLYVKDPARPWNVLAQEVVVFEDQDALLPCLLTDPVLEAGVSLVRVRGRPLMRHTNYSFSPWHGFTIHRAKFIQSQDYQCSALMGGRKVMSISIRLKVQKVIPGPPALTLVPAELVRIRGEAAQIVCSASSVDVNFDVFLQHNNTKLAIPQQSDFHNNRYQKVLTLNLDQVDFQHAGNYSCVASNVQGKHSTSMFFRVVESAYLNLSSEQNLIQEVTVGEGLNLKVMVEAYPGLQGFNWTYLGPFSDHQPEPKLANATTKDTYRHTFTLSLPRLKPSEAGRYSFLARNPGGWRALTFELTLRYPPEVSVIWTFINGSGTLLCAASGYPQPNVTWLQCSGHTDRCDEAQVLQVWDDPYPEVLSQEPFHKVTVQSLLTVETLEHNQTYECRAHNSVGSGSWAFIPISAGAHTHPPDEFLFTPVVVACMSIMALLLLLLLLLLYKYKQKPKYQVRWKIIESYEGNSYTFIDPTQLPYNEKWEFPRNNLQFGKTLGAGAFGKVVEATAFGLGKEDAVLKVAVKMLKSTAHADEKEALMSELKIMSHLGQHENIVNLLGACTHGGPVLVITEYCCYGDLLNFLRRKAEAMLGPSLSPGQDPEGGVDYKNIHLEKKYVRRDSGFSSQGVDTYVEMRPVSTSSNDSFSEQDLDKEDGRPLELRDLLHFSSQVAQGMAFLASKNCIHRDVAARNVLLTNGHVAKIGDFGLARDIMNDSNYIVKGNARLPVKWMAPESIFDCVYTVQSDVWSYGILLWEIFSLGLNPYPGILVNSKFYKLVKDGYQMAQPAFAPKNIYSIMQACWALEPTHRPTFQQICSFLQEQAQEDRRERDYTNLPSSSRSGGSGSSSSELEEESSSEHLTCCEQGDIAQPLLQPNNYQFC
Sequence of Tyrosine-protein kinase Fes/Fps (Homo sapiens) (P07332 whole entry): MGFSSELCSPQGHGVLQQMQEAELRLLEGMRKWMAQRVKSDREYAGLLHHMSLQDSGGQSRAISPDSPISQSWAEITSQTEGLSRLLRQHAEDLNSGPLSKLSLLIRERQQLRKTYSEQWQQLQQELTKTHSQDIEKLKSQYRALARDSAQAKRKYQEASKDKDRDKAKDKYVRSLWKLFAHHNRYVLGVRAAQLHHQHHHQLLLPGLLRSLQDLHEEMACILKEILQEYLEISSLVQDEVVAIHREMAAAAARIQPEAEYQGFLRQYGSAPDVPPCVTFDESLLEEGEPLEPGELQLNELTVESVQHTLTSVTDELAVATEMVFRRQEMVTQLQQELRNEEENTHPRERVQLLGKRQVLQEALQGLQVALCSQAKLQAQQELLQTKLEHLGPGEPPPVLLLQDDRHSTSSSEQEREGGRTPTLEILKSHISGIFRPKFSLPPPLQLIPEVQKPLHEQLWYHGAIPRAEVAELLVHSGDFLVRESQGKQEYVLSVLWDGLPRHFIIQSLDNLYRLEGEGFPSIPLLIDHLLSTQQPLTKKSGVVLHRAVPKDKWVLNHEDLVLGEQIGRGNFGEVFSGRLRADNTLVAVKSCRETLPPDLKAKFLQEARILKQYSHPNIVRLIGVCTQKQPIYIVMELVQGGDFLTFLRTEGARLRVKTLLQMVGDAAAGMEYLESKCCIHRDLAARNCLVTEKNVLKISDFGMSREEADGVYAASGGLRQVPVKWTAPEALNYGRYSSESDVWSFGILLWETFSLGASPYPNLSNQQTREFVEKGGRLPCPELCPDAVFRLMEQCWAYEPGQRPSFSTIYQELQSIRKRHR
Sequence of Serine/threonine-protein kinase 32A (Homo sapiens) (Q8WU08 whole entry): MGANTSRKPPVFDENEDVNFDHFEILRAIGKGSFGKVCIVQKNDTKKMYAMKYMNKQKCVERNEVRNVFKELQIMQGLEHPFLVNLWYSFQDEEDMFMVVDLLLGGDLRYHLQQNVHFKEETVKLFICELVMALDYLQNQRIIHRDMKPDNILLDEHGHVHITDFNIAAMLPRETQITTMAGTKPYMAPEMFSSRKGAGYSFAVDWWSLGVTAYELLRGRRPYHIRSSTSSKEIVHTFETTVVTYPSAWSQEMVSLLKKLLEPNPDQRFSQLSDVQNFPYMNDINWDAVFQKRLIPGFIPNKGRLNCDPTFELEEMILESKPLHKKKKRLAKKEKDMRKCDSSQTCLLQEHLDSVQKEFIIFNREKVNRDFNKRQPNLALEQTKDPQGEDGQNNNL
Sequence of Ephrin type-B receptor 4 (Homo sapiens) (P54760 whole entry): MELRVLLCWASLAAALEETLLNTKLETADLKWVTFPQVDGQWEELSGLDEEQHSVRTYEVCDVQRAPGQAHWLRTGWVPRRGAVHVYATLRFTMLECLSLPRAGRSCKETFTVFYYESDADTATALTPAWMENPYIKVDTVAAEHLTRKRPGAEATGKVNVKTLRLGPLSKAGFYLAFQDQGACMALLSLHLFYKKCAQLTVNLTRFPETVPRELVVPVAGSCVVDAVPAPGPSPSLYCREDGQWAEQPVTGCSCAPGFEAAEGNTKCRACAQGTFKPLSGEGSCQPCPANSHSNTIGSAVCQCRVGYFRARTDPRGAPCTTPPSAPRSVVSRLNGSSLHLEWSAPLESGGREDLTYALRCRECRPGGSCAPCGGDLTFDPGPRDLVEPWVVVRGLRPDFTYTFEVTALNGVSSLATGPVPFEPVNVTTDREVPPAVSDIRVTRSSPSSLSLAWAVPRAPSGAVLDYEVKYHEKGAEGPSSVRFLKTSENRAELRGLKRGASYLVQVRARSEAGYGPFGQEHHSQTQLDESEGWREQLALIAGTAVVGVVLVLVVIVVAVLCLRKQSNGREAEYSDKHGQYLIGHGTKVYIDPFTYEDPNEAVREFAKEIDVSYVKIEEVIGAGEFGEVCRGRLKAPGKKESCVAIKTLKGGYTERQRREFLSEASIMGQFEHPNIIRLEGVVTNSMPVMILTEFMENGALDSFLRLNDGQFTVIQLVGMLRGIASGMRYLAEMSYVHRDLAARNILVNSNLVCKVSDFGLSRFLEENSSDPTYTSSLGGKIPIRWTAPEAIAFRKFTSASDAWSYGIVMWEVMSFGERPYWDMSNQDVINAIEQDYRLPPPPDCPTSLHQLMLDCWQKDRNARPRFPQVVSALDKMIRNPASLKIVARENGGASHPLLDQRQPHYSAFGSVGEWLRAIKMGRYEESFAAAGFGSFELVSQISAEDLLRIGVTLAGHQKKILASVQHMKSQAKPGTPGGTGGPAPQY
Sequence of Interferon-induced, double-stranded RNA-activated protein kinase (Homo sapiens) (P19525 whole entry): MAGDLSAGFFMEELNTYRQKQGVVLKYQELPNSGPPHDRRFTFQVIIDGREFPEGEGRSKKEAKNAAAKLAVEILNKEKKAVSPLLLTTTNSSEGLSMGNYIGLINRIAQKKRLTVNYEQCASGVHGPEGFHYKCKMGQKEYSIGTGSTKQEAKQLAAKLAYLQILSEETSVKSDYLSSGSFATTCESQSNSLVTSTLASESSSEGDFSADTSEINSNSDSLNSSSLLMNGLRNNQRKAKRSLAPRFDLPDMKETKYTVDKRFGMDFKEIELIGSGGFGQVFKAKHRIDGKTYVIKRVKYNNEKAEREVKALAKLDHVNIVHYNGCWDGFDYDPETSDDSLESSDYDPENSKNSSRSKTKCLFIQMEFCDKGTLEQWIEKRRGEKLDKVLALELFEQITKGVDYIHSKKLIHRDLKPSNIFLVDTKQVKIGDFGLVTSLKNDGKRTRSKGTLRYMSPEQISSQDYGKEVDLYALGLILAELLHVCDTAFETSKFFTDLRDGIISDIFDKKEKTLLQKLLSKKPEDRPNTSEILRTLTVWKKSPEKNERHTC

COc1cccc(CNC(=O)c2nc3scc(COCc4ccc(C(=O)O)cc4)c3c(=O)[nH]2)c1 [T-26c]
inactive: inhibition [1] 12.5% | residual activity [2] 100% | residual activity [3] 100% | residual activity [4] 83% | residual activity [5] 93% | residual activity [6] 94.5% | residual activity [7] 77.8% | residual activity [8] 79.2% | residual activity [9] 89.4% | inhibition [10] 8.18% | residual activity [11] 92.9% | residual activity [12] 72.2% | residual activity [13] 100% | residual activity [14] 85.4% | residual activity [15] 94.6% | residual activity [16] 99.2% | residual activity [17] 56.7% | residual activity [18] 50.1% | residual activity [19] 100% | inhibition [20] 12.6% | residual activity [21] 97.7% | inhibition [22] 6.87% | residual activity [23] 96.7% | residual activity [24] 100% | residual activity [25] 67.6% | residual activity [26] 86.4% | residual activity [27] 100% | residual activity [28] 100% | residual activity [29] 100% | residual activity [30] 100% | residual activity [31] 89.2% | residual activity [32] 98% | residual activity [33] 66.1% | residual activity [34] 100% | residual activity [35] 89.5% | residual activity [36] 78.1% | residual activity [37] 100% | residual activity [38] 94.8% | residual activity [39] 100% | residual activity [40] 100% | residual activity [41] 100% | residual activity [42] 71.3% | residual activity [43] 76% | residual activity [44] 69.1% | residual activity [45] 100%
